Data from PubChem BioAssay AID1845197 (Molecular Pharmacology Branch, DTP, NCI, 2023).
pIC50: −log10 of the molar value. Several values for one entry are separate records, joined by “and”; a condition that tells them apart may be missing. Equal entries are not always repeated.

System: 349418-098-R tumor spheroid viability
Assay: Anticancer human tumor 349418-098-R patient-derived lung adenocarcinoma cell line growth inhibition
Conditions: spheroids with HUVEC and MSC; for viability, T/C: stronger effect = lower value; for IC50: compound alone; active = viability on the fitted dose curve at most 10% of control; inactive = the rest
Procedure, shortened: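 Complex tumor spheroids combined malignant cells with endothelial cells and mesenchymal stem cells. DNA-damaging drugs and DNA repair inhibitors were tested alone and in combination, at half-log dilutions down from clinical Cmax (top 10 microM if Cmax unknown), 0.25% DMSO final.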
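Also: spheroids exposed to compound for 7 days before measurement.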
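For viability, T/C in this document: percent of vehicle control viability with 100% = DMSO-treated spheroids.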

COc1cc(C)[nH]c(=O)c1CN1CCc2c(Cl)cc(C(OC)C3COC3)c(Cl)c2C1=O (stereo not drawn)
inactive: viability, T/C (compound 0.0316 µM) 113% and 98.1% and 118% | viability, T/C (compound 0.1 µM) 115% and 96.7% and 122% | viability, T/C (compound 0.316 µM) 108% and 91.9% and 112% | viability, T/C (compound 1 µM) 104% and 92% and 112% | viability, T/C (compound 3.16 µM) 101% and 79.7% and 118% | viability, T/C (compound 10 µM) 96.4% and 83.6% and 103%
< 5.00: pIC50 (curve of compound)

COc1cc(C)[nH]c(=O)c1CN1CCc2c(Cl)cc(C(OC)C3COC3)c(Cl)c2C1=O (stereo not drawn) + Cn1nnc2c(C(N)=O)ncn2c1=O
< 5.00: pIC50 (curve of first compound, second compound 1 µM) | pIC50 (curve of first compound, second compound 3.16 µM) | pIC50 (curve of first compound, second compound 10 µM) | pIC50 (curve of first compound, second compound 31.6 µM) | pIC50 (curve of first compound, second compound 100 µM)
inactive: viability, T/C (second compound 1 µM, first compound 0.0316 µM) 102% | viability, T/C (second compound 1 µM, first compound 0.1 µM) 99.6% | viability, T/C (second compound 1 µM, first compound 0.316 µM) 92.1% | viability, T/C (second compound 1 µM, first compound 1 µM) 90.6% | viability, T/C (second compound 1 µM, first compound 3.16 µM) 83.7% | viability, T/C (second compound 1 µM, first compound 10 µM) 79.4% | viability, T/C (second compound 3.16 µM, first compound 0.0316 µM) 103% | viability, T/C (second compound 3.16 µM, first compound 0.1 µM) 98.5% | viability, T/C (second compound 3.16 µM, first compound 0.316 µM) 95.7% | viability, T/C (second compound 3.16 µM, first compound 1 µM) 84.2% | viability, T/C (second compound 3.16 µM, first compound 3.16 µM) 84% | viability, T/C (second compound 3.16 µM, first compound 10 µM) 83.6% | viability, T/C (second compound 10 µM, first compound 0.0316 µM) 98.7% | viability, T/C (second compound 10 µM, first compound 0.1 µM) 96.7% | viability, T/C (second compound 10 µM, first compound 0.316 µM) 92.3% | viability, T/C (second compound 10 µM, first compound 1 µM) 95.1% | viability, T/C (second compound 10 µM, first compound 3.16 µM) 85% | viability, T/C (second compound 10 µM, first compound 10 µM) 81.9% | viability, T/C (second compound 31.6 µM, first compound 0.0316 µM) 104% | viability, T/C (second compound 31.6 µM, first compound 0.1 µM) 98.5% | viability, T/C (second compound 31.6 µM, first compound 0.316 µM) 93.4% | viability, T/C (second compound 31.6 µM, first compound 1 µM) 93.3% | viability, T/C (second compound 31.6 µM, first compound 3.16 µM) 84.8% | viability, T/C (second compound 31.6 µM, first compound 10 µM) 78.4% | viability, T/C (second compound 100 µM, first compound 0.0316 µM) 99% | viability, T/C (second compound 100 µM, first compound 0.1 µM) 98.7% | viability, T/C (second compound 100 µM, first compound 0.316 µM) 96.3% | viability, T/C (second compound 100 µM, first compound 1 µM) 87.4% | viability, T/C (second compound 100 µM, first compound 3.16 µM) 87% | viability, T/C (second compound 100 µM, first compound 10 µM) 81.8%

CC(C)n1c(=O)n(C)c2cnc3cc(F)c(-c4ccc(OCCCN5CCCCC5)nc4)cc3c21 + CC[C@@]1(O)C(=O)OCc2c1cc1n(c2=O)Cc2cc3c(CN(C)C)c(O)ccc3nc2-1
< 5.00: pIC50 (curve of first compound, second compound 0.003 µM)
active: viability, T/C (second compound 0.0949 µM, first compound 0.0316 µM) 7.03% | viability, T/C (second compound 0.0949 µM, first compound 0.1 µM) 9.49% | viability, T/C (second compound 0.0949 µM, first compound 0.316 µM) 9.54% | viability, T/C (second compound 0.0949 µM, first compound 1 µM) 9.81% | viability, T/C (second compound 0.0949 µM, first compound 3.16 µM) 11.7% | viability, T/C (second compound 0.0949 µM, first compound 10 µM) 12.4% | viability, T/C (second compound 0.3 µM, first compound 0.0316 µM) 5.01% | viability, T/C (second compound 0.3 µM, first compound 0.1 µM) 4.88% | viability, T/C (second compound 0.3 µM, first compound 0.316 µM) 5.74% | viability, T/C (second compound 0.3 µM, first compound 1 µM) 6.26% | viability, T/C (second compound 0.3 µM, first compound 3.16 µM) 8.16% | viability, T/C (second compound 0.3 µM, first compound 10 µM) 8.82%
> 7.50: pIC50 (curve of first compound, second compound 0.03 µM) | pIC50 (curve of first compound, second compound 0.0949 µM) | pIC50 (curve of first compound, second compound 0.3 µM)
inactive: viability, T/C (second compound 0.003 µM, first compound 0.0316 µM) 96.9% | viability, T/C (second compound 0.003 µM, first compound 0.1 µM) 93.2% | viability, T/C (second compound 0.003 µM, first compound 0.316 µM) 93.8% | viability, T/C (second compound 0.003 µM, first compound 1 µM) 99.6% | viability, T/C (second compound 0.003 µM, first compound 3.16 µM) 100% | viability, T/C (second compound 0.003 µM, first compound 10 µM) 63.9% | viability, T/C (second compound 0.00949 µM, first compound 0.0316 µM) 67.6% | viability, T/C (second compound 0.00949 µM, first compound 0.1 µM) 69.3% | viability, T/C (second compound 0.00949 µM, first compound 0.316 µM) 66.2% | viability, T/C (second compound 0.00949 µM, first compound 1 µM) 67.7% | viability, T/C (second compound 0.00949 µM, first compound 3.16 µM) 63.4% | viability, T/C (second compound 0.00949 µM, first compound 10 µM) 28.7% | viability, T/C (second compound 0.03 µM, first compound 0.0316 µM) 24.3% | viability, T/C (second compound 0.03 µM, first compound 0.1 µM) 22% | viability, T/C (second compound 0.03 µM, first compound 0.316 µM) 22.2% | viability, T/C (second compound 0.03 µM, first compound 1 µM) 22.7% | viability, T/C (second compound 0.03 µM, first compound 3.16 µM) 27.8% | viability, T/C (second compound 0.03 µM, first compound 10 µM) 17%
5.31: pIC50 (curve of first compound, second compound 0.00949 µM)

CC[C@@]1(O)C(=O)OCc2c1cc1n(c2=O)Cc2cc3c(CN(C)C)c(O)ccc3nc2-1
active: viability, T/C (compound 0.3 µM) 4.75% [middle of 10 runs]
58.3 nM [middle of 5 runs]: IC50 (run of 10/17/2019)
inactive: viability, T/C (compound 0.003 µM) 99.8% [middle of 10 runs] | viability, T/C (compound 0.00949 µM) 97.5% [middle of 10 runs] | viability, T/C (compound 0.03 µM) 77.6% [middle of 10 runs] | viability, T/C (compound 0.0949 µM) 19.6% [middle of 10 runs]
43.3 nM [middle of 5 runs]: IC50 (run of 10/25/2019)

CC(C)n1c(=O)n(C)c2cnc3cc(F)c(-c4ccc(OCCCN5CCCCC5)nc4)cc3c21
< 5.00 and 5.02: pIC50 (curve of compound)
inactive: viability, T/C (compound 0.0316 µM) 89% and 110% (2×) | viability, T/C (compound 0.1 µM) 97.8% and 97.9% and 106% | viability, T/C (compound 0.316 µM) 94.4% and 93.9% and 108% | viability, T/C (compound 1 µM) 105% and 97.3% and 108% | viability, T/C (compound 3.16 µM) 109% and 102% and 105% | viability, T/C (compound 10 µM) 56.8% and 48.3% and 85.3%

Cc1cc(C)c(CNC(=O)c2cc(-c3ccc(CN4CCOCC4)cc3)cc3c2cnn3C2CCCC2)c(=O)[nH]1
inactive: viability, T/C (compound 0.0316 µM) 99.9% and 101% and 92.4% | viability, T/C (compound 0.1 µM) 118% and 95.5% and 100% | viability, T/C (compound 0.316 µM) 111% and 98.5% and 101% | viability, T/C (compound 1 µM) 109% and 97% and 96.8% | viability, T/C (compound 3.16 µM) 126% and 87.5% and 87.7% | viability, T/C (compound 10 µM) 75.6% and 33.3% and 40.8%
< 5.00 and 5.15 and 5.10: pIC50 (curve of compound)
